Usually pIC50 stands for the negative decadic logarithm of the IC50, by convention in mol/L.

14 compounds from ChEMBL document CHEMBL5052842, “Pharmaceutical compounds and their use as inhibitors of ubiquitin specific protease 19 (usp19)” (2020) can be followed below.

pIC50: −log10 of the molar value.

This test deals with T1, Ubiquitin carboxyl-terminal hydrolase 19 (Homo sapiens, UniProt O94966).
T1 sequence (O94966 whole entry): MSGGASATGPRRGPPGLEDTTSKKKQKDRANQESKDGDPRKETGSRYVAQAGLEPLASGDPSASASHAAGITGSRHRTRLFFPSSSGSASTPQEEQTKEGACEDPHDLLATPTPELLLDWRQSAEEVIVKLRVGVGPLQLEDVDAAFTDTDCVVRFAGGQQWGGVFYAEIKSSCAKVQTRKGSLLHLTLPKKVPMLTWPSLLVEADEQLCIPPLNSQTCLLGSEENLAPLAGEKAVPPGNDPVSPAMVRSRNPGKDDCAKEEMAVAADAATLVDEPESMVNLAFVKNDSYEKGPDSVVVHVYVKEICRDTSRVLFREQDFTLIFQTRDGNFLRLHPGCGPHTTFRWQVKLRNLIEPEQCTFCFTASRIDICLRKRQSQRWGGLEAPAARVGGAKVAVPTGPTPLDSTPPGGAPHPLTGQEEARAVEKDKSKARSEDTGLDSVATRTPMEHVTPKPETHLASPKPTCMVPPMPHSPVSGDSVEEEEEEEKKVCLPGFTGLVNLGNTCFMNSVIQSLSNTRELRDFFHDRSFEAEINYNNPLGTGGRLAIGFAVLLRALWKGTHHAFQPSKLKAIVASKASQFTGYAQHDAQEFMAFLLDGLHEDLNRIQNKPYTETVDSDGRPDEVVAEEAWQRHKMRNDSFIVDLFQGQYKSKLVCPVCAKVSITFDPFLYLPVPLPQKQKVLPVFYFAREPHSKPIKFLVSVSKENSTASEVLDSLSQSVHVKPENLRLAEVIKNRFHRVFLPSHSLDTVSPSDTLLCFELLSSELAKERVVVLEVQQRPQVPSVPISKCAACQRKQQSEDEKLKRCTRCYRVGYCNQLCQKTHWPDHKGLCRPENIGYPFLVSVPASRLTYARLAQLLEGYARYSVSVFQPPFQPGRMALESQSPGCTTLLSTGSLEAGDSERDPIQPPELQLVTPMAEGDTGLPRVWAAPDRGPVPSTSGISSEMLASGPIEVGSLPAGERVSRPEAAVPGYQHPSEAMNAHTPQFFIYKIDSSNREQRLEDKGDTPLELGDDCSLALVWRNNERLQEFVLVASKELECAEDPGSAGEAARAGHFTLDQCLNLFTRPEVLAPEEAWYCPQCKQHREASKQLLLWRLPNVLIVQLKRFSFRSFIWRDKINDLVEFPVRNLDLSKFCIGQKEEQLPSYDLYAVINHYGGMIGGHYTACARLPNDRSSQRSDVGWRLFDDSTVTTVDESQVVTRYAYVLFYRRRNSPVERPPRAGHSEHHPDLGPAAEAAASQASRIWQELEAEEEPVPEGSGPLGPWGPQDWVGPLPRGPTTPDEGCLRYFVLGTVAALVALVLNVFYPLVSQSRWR
Description: Inhibition of C-terminal His6-tagged recombinant human USP19 using iso-peptide ubiquitin-Lys-TAMRA as substrate incubated for 30 mins and measured after 90 mins by fluorescent polarization assay.

For the compound `O=C(N1CC[C@@](O)(Cn2cnc(-c3ccccc3F)cc2=O)C2(CCCC2)C1)N1CCNC[C@H]1c1cc(F)cc(F)c1`, the negative-log IC50 (pIC50) is over 6.30.
On to `C[C@@]1(c2ccccc2)CNCCN1C(=O)N1CC[C@@](O)(Cn2cnc(-c3ccccc3)cc2=O)C2(CCCC2)C1`, for which the pIC50 was over 6.30.
In the case of `Cc1cccc(-c2cc(=O)n(C[C@]3(O)CCN(C(=O)N4CCNC[C@H]4c4cc(F)ccc4F)CC34CCCC4)cn2)c1` it was over 6.30.
In the case of `O=C(N1CC[C@@](O)(Cn2cnc(-c3ccccc3F)cc2=O)C2(CCCC2)C1)N1CCNC[C@H]1c1cc(F)ccc1F` it was over 6.30.
Next, `COc1ccccc1-c1cc(=O)n(C[C@]2(O)CCN(C(=O)N3CCNC[C@H]3c3cc(F)ccc3F)CC23CCCC3)cn1`: over 6.30; `N[C@H]1CCN(C(=O)N2CC[C@@](O)(Cn3cnc(-c4ccccc4)cc3=O)C3(CCCC3)C2)[C@H](c2ccccc2)C1`: over 6.30; `O=C(N1CC[C@@](O)(Cn2ccc(-c3ccccc3F)cc2=O)C2(CCCC2)C1)N1CCNC[C@H]1c1cccc(F)c1`: over 6.30.
`O=C(N1CC[C@@](O)(Cn2cnc(-c3ccccc3)cc2=O)C2(CCCC2)C1)N1CCSC[C@H]1c1cc(F)ccc1F`: the pIC50 was over 6.30.
In the case of `O=C(N1CC[C@@](O)(Cn2cnc(N3CC4CC4C3)cc2=O)C2(CCCC2)C1)N1CCNC[C@H]1c1cc(F)ccc1F` (some centres undefined) it was over 6.30; in that of `COc1ccc(F)cc1-c1cc(=O)n(C[C@]2(O)CCN(C(=O)N3CCNC[C@H]3c3ccccc3)CC23CCCC3)cn1`, over 6.30; in that of `O=C(N1CC[C@@](O)(Cn2cnc(-c3ccccc3)cc2=O)C2(CCCC2)C1)N1CCS(=O)(=O)C[C@H]1c1cc(F)ccc1F`, over 6.30.
On to `O=C(N1CC[C@@](O)(Cn2cnc(-c3cccc(F)c3F)cc2=O)C2(CCCC2)C1)N1CCNC[C@H]1c1ccccc1`, for which the pIC50 was over 6.30.
Next, `N[C@@H]1CCN(C(=O)N2CC[C@@](O)(Cn3cnc(-c4ccccc4)cc3=O)C3(CCCC3)C2)[C@H](c2ccccc2)C1`: over 6.30; `N=S1(=O)CCN(C(=O)N2CC[C@@](O)(Cn3cnc(-c4ccccc4)cc3=O)C3(CCCC3)C2)[C@H](c2cc(F)ccc2F)C1` (some centres undefined): over 6.30.
